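A five-concentration, 48-hour dose response in 96-well plates underlies each endpoint, interpolated linearly between surrounding concentrations. GI50 = concentration required for 50% inhibition of growth. Definition used: TGI = concentration required for complete inhibition of growth.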
Legend:
Experiment in all cases: growth of human tumour cells (NCI), 48 h
NCI-H522 lung = test system: NCI-H522 lung
COLO 205 colon = test system: COLO 205 colon
KM12 colon = test system: KM12 colon
786-0 renal = test system: 786-0 renal
DLD-1 colon = test system: DLD-1 colon
RPMI-8226 leukemia = test system: RPMI-8226 leukemia
NCI-H23 lung = test system: NCI-H23 lung
UACC-62 melanoma = test system: UACC-62 melanoma
HCC-2998 colon = test system: HCC-2998 colon
M14 melanoma = test system: M14 melanoma
CCRF-CEM leukemia = test system: CCRF-CEM leukemia
SNB-19 CNS = test system: SNB-19 CNS
HCT-116 colon = test system: HCT-116 colon
SNB-78 CNS = test system: SNB-78 CNS
DMS 273 small cell lung = test system: DMS 273 small cell lung
SK-MEL-5 melanoma = test system: SK-MEL-5 melanoma
LXFL 529 NSCLC = test system: LXFL 529 NSCLC
DMS 114 small cell lung = test system: DMS 114 small cell lung
K-562 leukemia = test system: K-562 leukemia
HOP-62 NSCLC = test system: HOP-62 NSCLC
XF 498 CNS = test system: XF 498 CNS
A549 NSCLC = test system: A549 NSCLC
CAKI-1 renal = test system: CAKI-1 renal
HL-60(TB) leukemia = test system: HL-60(TB) leukemia
U251 CNS = test system: U251 CNS
UACC-257 melanoma = test system: UACC-257 melanoma
RXF 393 renal = test system: RXF 393 renal
KM20L2 colon = test system: KM20L2 colon
SR leukemia = test system: SR leukemia
SK-MEL-28 melanoma = test system: SK-MEL-28 melanoma
NCI-H226 lung = test system: NCI-H226 lung
TK-10 renal = test system: TK-10 renal
IGROV1 ovarian = test system: IGROV1 ovarian
RXF-631 renal = test system: RXF-631 renal
OVCAR-8 ovarian = test system: OVCAR-8 ovarian
EKVX NSCLC = test system: EKVX NSCLC
HOP-18 NSCLC = test system: HOP-18 NSCLC
HCT-15 colon = test system: HCT-15 colon
SNB-75 CNS = test system: SNB-75 CNS
HT29 colon = test system: HT29 colon
HOP-92 NSCLC = test system: HOP-92 NSCLC
A498 renal = test system: A498 renal
SF-295 CNS = test system: SF-295 CNS
SK-OV-3 ovarian = test system: SK-OV-3 ovarian
OVCAR-4 ovarian = test system: OVCAR-4 ovarian
UO-31 renal = test system: UO-31 renal
OVCAR-3 ovarian = test system: OVCAR-3 ovarian
LOX IMVI melanoma = test system: LOX IMVI melanoma
MALME-3M melanoma = test system: MALME-3M melanoma
SF-539 CNS = test system: SF-539 CNS
NCI-H460 lung = test system: NCI-H460 lung
OVCAR-5 ovarian = test system: OVCAR-5 ovarian
MOLT-4 leukemia = test system: MOLT-4 leukemia
SF-268 CNS = test system: SF-268 CNS
ACHN renal = test system: ACHN renal
SW-620 colon = test system: SW-620 colon
SN12C renal = test system: SN12C renal
HS 578T breast = test system: HS 578T breast
MDA-MB-435 = test system: MDA-MB-435
T-47D breast = test system: T-47D breast
BT-549 breast = test system: BT-549 breast
NCI/ADR-RES ovarian = test system: NCI/ADR-RES ovarian
MDA-N = test system: MDA-N
PC-3 prostate = test system: PC-3 prostate
DU-145 prostate = test system: DU-145 prostate
M19-MEL melanoma = test system: M19-MEL melanoma
MCF7 breast = test system: MCF7 breast
SK-MEL-2 melanoma = test system: SK-MEL-2 melanoma

Cc1ccc(C(=O)O)cc1NC(=O)c1cc(/C=C/c2ccccc2)[nH]c(=S)n1 gave a TGI (NCI-H522 lung) greater than 100 µM, a TGI (COLO 205 colon) greater than 100 µM and a TGI (KM12 colon) greater than 100 µM. The TGI (786-0 renal) was greater than 100 µM, the TGI (DLD-1 colon) was greater than 77.1 µM and the TGI (RPMI-8226 leukemia) was greater than 69.7 µM. It also gave a TGI (NCI-H23 lung) greater than 100 µM, a TGI (UACC-62 melanoma) greater than 100 µM and a TGI (HCC-2998 colon) greater than 100 µM. It also gave a TGI (M14 melanoma) greater than 100 µM, a TGI (CCRF-CEM leukemia) greater than 100 µM and a TGI (SNB-19 CNS) greater than 100 µM. The TGI (HCT-116 colon) was greater than 53 µM, the TGI (SNB-78 CNS) was greater than 100 µM and the TGI (DMS 273 small cell lung) was greater than 100 µM. It also gave a TGI (SK-MEL-5 melanoma) greater than 100 µM, a TGI (LXFL 529 NSCLC) greater than 100 µM and a TGI (DMS 114 small cell lung) greater than 100 µM. It also gave a TGI (K-562 leukemia) greater than 100 µM, a TGI (HOP-62 NSCLC) greater than 100 µM and a TGI (XF 498 CNS) greater than 100 µM. The TGI (A549 NSCLC) was greater than 100 µM, the TGI (CAKI-1 renal) was greater than 100 µM and the TGI (HL-60(TB) leukemia) was greater than 100 µM. The TGI (U251 CNS) was greater than 100 µM, the TGI (UACC-257 melanoma) was greater than 100 µM and the TGI (RXF 393 renal) was greater than 100 µM. The TGI (KM20L2 colon) was greater than 100 µM, the TGI (SR leukemia) was greater than 100 µM and the TGI (SK-MEL-28 melanoma) was greater than 100 µM. For the same compound, the TGI (NCI-H226 lung) was greater than 100 µM, the TGI (TK-10 renal) was greater than 100 µM and the TGI (IGROV1 ovarian) was greater than 100 µM. The TGI (RXF-631 renal) was greater than 100 µM, the TGI (OVCAR-8 ovarian) was greater than 100 µM and the TGI (EKVX NSCLC) was greater than 100 µM. The TGI (HOP-18 NSCLC) was greater than 100 µM, the TGI (HCT-15 colon) was greater than 60.7 µM and the TGI (SNB-75 CNS) was greater than 100 µM. It also gave a TGI (HT29 colon) greater than 100 µM, a TGI (HOP-92 NSCLC) greater than 100 µM and a TGI (A498 renal) greater than 100 µM. The TGI (SF-295 CNS) was greater than 100 µM, the TGI (SK-OV-3 ovarian) was greater than 100 µM and the TGI (OVCAR-4 ovarian) was greater than 100 µM. It also gave a TGI (UO-31 renal) greater than 100 µM, a TGI (OVCAR-3 ovarian) greater than 100 µM and a TGI (LOX IMVI melanoma) greater than 100 µM. It also gave a TGI (MALME-3M melanoma) greater than 100 µM, a TGI (SF-539 CNS) greater than 100 µM and a TGI (NCI-H460 lung) greater than 100 µM. It also gave a TGI (OVCAR-5 ovarian) greater than 100 µM, a TGI (MOLT-4 leukemia) greater than 100 µM and a TGI (SF-268 CNS) greater than 100 µM. It also gave a TGI (ACHN renal) greater than 100 µM, a TGI (SW-620 colon) greater than 48.8 µM and a TGI (SN12C renal) greater than 100 µM.
COC1/C=C\C=C(/C)C(=O)NC2=CC(=O)C(N)=C(CC(C)CC(OC)C(O)C(C)C=C(C)C1OC(N)=O)C2=O (centres undefined) showed a TGI (HS 578T breast) of 59.4 µM, a TGI (NCI-H522 lung) of 0.392 µM and a GI50 (COLO 205 colon) of 0.0614 µM. It also gave a TGI (COLO 205 colon) of 0.0507 µM, a TGI (786-0 renal) greater than 100 µM and a TGI (DLD-1 colon) of 17.7 µM. The TGI (RPMI-8226 leukemia) was 65.4 µM, the GI50 (NCI-H23 lung) was 0.0375 µM and the TGI (NCI-H23 lung) was 21.5 µM. It also gave a GI50 (UACC-62 melanoma) of 0.0322 µM, a TGI (UACC-62 melanoma) of 18.4 µM and a TGI (HCC-2998 colon) of 1.74 µM. For the same compound, the GI50 (M14 melanoma) was 0.0379 µM, the TGI (M14 melanoma) was 33.4 µM and the TGI (CCRF-CEM leukemia) was 35.8 µM. It also gave a TGI (SNB-19 CNS) of 93.7 µM, a TGI (HCT-116 colon) of 25.3 µM and a GI50 (MDA-MB-435) of 0.051 µM. The TGI (MDA-MB-435) was 14.9 µM, the TGI (SNB-78 CNS) was 91.1 µM and the TGI (T-47D breast) was 33.7 µM. The TGI (SK-MEL-5 melanoma) was 15.8 µM, the TGI (LXFL 529 NSCLC) was greater than 100 µM and the GI50 (K-562 leukemia) was 0.0982 µM. For the same compound, the TGI (K-562 leukemia) was greater than 69.6 µM, the TGI (HOP-62 NSCLC) was greater than 78 µM and the TGI (XF 498 CNS) was 24.8 µM. The TGI (A549 NSCLC) was 40.9 µM, the TGI (CAKI-1 renal) was greater than 89.8 µM and the GI50 (BT-549 breast) was 0.0806 µM. The TGI (BT-549 breast) was greater than 45.2 µM, the TGI (NCI/ADR-RES ovarian) was greater than 100 µM and the TGI (HL-60(TB) leukemia) was 19.3 µM. For the same compound, the GI50 (U251 CNS) was 0.0822 µM, the TGI (U251 CNS) was greater than 48.9 µM and the TGI (UACC-257 melanoma) was 14.5 µM. It also gave a TGI (RXF 393 renal) greater than 94.7 µM, a TGI (KM20L2 colon) of 0.0192 µM and a GI50 (SR leukemia) of less than 0.01 µM. The TGI (SR leukemia) was 1.64 µM, the GI50 (SK-MEL-28 melanoma) was 0.0513 µM and the TGI (SK-MEL-28 melanoma) was greater than 73.8 µM. It also gave a TGI (NCI-H226 lung) greater than 100 µM, a TGI (TK-10 renal) greater than 77.2 µM and a TGI (IGROV1 ovarian) of 25.9 µM. For the same compound, the GI50 (MDA-N) was 0.0829 µM, the TGI (MDA-N) was 12.6 µM and the TGI (RXF-631 renal) was greater than 100 µM. It also gave a TGI (OVCAR-8 ovarian) of 33.9 µM, a TGI (PC-3 prostate) greater than 75.7 µM and a GI50 (DU-145 prostate) of 0.067 µM. It also gave a TGI (DU-145 prostate) of 31.7 µM, a TGI (EKVX NSCLC) of 63 µM and a TGI (HOP-18 NSCLC) of 32.4 µM. For the same compound, the TGI (HCT-15 colon) was 31.5 µM, the TGI (SNB-75 CNS) was 11.3 µM and the GI50 (HT29 colon) was 0.0337 µM. The TGI (HT29 colon) was greater than 63.7 µM, the TGI (A498 renal) was greater than 96.4 µM and the TGI (SF-295 CNS) was greater than 62.2 µM. It also gave a TGI (M19-MEL melanoma) of 12.5 µM, a GI50 (SK-OV-3 ovarian) of 0.0822 µM and a TGI (SK-OV-3 ovarian) greater than 100 µM. It also gave a TGI (OVCAR-4 ovarian) of 36.9 µM, a TGI (UO-31 renal) of 40.4 µM and a TGI (MCF7 breast) of 37.6 µM. For the same compound, the TGI (OVCAR-3 ovarian) was 20.2 µM, the GI50 (LOX IMVI melanoma) was 0.0761 µM and the TGI (LOX IMVI melanoma) was 1.55 µM. For the same compound, the TGI (MALME-3M melanoma) was 15.4 µM, the GI50 (SF-539 CNS) was 0.0397 µM and the TGI (SF-539 CNS) was greater than 44.4 µM. For the same compound, the TGI (SK-MEL-2 melanoma) was 14.9 µM, the GI50 (NCI-H460 lung) was 0.0459 µM and the TGI (NCI-H460 lung) was greater than 54.7 µM. It also gave a TGI (OVCAR-5 ovarian) of 39.7 µM, a TGI (MOLT-4 leukemia) of 48.7 µM and a TGI (SF-268 CNS) of 68.6 µM. It also gave a TGI (ACHN renal) of 83.5 µM, a GI50 (SW-620 colon) of 0.0468 µM and a TGI (SW-620 colon) of 17.4 µM. The TGI (SN12C renal) was 29 µM.
